Drawing on US11370785B2, “Multicyclic compounds as farnesoid X receptor modulators” (BRISTOL-MYERS SQUIBB COMPANY, priority 2017, dated 2022), this text covers EC50 for 48 compounds.

For orientation: EC50 means the concentration needed to bring the measured effect to its halfway point.

This experiment addresses T1, human FXR (Homo sapiens, UniProt Q96RI1).
T1 construct: expressed in transfected cells; host or cells: HEK293 cells stably carrying a 5xGal4-response-element firefly luciferase reporter, transiently transfected with the pcDNA3.1-Gal4-FXR plasmid
T1 sequence (Q96RI1 262-486 limits assumed): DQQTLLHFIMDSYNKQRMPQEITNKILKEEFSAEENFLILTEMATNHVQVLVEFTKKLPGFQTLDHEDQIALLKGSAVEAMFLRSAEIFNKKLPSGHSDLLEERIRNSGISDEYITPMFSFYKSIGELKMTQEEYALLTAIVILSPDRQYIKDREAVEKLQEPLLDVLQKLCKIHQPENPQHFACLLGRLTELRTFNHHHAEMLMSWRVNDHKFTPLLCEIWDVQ
Briefly: transient human FXR/Gal4-luciferase reporter assay. Type of experiment: cell-based. The conditions noted are these: Gal4-hFXR reporter in HEK293 cells; relative to 8 μM GW-4064; read-out: FXR EC50. Summed up:
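HEK293 cells stably carrying a 5×Gal4-response-element firefly luciferase reporter, transiently transfected with a CMV-driven Gal4 DNA-binding domain–human FXR ligand-binding domain fusion, were treated overnight at 37 °C with serially diluted compounds. Luminescence was read by Steady-Glo; DMSO background was subtracted and signal expressed as percent of the 8 μM GW-4064 response.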
(In general: A reporter such as luciferase makes a cellular process visible.)
For `O=C(O)c1cc(F)c2nc(N3CCC4(CC3)CC(=Cc3c(-c5c(Cl)cccc5Cl)noc3C3CC3)C4)sc2c1` [Example 130], the EC50 was determined as 260 nM.
Under `O=C(O)c1cc(F)c2nc(N3CCC4(CC(=Cc5c(-c6c(Cl)cccc6Cl)noc5C5CC5)C4)C3)sc2c1` (stereo not drawn) [Example 131] stands 72 nM; under `O=C(O)c1ccc(N2CCC3(CC(=Cc4c(-c5c(Cl)cccc5Cl)noc4C4CC4)C3)C2)nc1` (stereo not drawn) [Example 132], 514 nM.
Regarding `O=C(O)c1cc(C(F)(F)F)c2cc(N3CCC4(CC3)CC(=Cc3c(-c5c(Cl)cccc5Cl)noc3C(F)(F)F)C4)ccc2n1` [Example 136], the EC50 came to 27 nM.
For `O=C(O)c1cc(OC2COC2)c2cc(N3CCC4(CC3)CC(=Cc3c(-c5ccccc5C(F)(F)F)noc3C3CC3)C4)ccc2n1` [Example 137] the value was 78 nM; for `O=C(O)c1cc(OC2COC2)c2cc(N3CCC4(CC3)CC(Cc3c(-c5ccccc5C(F)(F)F)noc3C3CC3)C4)ccc2n1` [Example 138], 23 nM; for `O=C(O)c1cc(OC2COC2)c2cc(N3CCC4(CC3)CC(=Cc3c(-c5c(Cl)cncc5Cl)noc3C3CC3)C4)ccc2n1` [Example 139], 47 nM.
For `COc1cc(C(=O)O)nc2ccc(N3CCC4(CC3)CC(=Cc3c(-c5c(Cl)cccc5Cl)noc3C(F)(F)F)C4)cc12` [Example 140] the value was 4 nM; for `CCOc1cc(C(=O)O)ncc1N1CCC2(CC1)CC(=Cc1c(-c3ccccc3C(F)(F)F)noc1C1CC1)C2` [Example 141], 442 nM.
For `CCOc1cc(C(N)=O)ncc1N1CCC2(CC1)CC(=Cc1c(-c3ccccc3C(F)(F)F)noc1C1CC1)C2` [Example 142], the EC50 was found to be 189 nM.
For `CCOc1cc(C(N)=O)ncc1N1CCC2(CC1)CC(Cc1c(-c3ccccc3C(F)(F)F)noc1C1CC1)C2` [Example 144] the value was 327 nM; for `O=C(O[C@@H]1O[C@H](C(=O)O)[C@@H](O)[C@H](O)[C@H]1O)c1cc(C(F)(F)F)c2cc(N3CCC4(CC3)CC(Cc3c(-c5ccccc5C(F)(F)F)noc3C3CC3)C4)ccc2n1` [Example 145, (2S,3S,4S,5R,6S)-6-((6-(2-((5-Cyclopropyl-3-(2-(trifluoromethyl)phenyl)isoxazol-4-yl)methyl)-7-azaspiro[3.5]nonan-7-yl)-4-(trifluoromethyl)quinoline-2-carbonyl)oxy)-3,4,5-trihydroxytetrahydro-2H-pyran-2-carboxylic acid], 36 nM.
Under `CCOc1cc(C(N)=O)ncc1N1CCC2(CC1)CC(=Cc1c(-c3c(Cl)cncc3Cl)noc1C1CC1)C2` [Example 146] stands 112 nM.
For `CC(O)Cc1cc(C(=O)O)nc2ccc(N3CCC4(CC3)CC(Cc3c(-c5ccccc5C(F)(F)F)noc3C3CC3)C4)cc12` (stereo not drawn) [Example 147] the value was 160 nM; for `O=C(O)c1cc(OCC(F)F)c2cc(N3CCC4(CC3)CC(=Cc3c(-c5ccccc5C(F)(F)F)noc3C3CC3)C4)ccc2n1` [Example 148], 4 nM.
For the compound `O=C(O)c1cc(OCC(F)F)c2cc(N3CCC4(CC3)CC(Cc3c(-c5ccccc5C(F)(F)F)noc3C3CC3)C4)ccc2n1` [Example 149], the EC50 amounted to 6 nM.
Turning to `O=C(O)c1cc(F)c2nc(N3CCC4(CC3)CC(=Cc3c(-c5c(Cl)cncc5Cl)noc3C(F)(F)F)C4)sc2c1` [Example 150], the half-maximal effective concentration (EC50) stood at 110 nM.
As for `O=C(O)c1cc(OC2CCOC2)c2cc(N3CCC4(CC3)CC(Cc3c(-c5ccccc5C(F)(F)F)noc3C3CC3)C4)ccc2n1` (stereo not drawn) [Example 151], the EC50 worked out at 12 nM.
Consider `O=C(O)c1cc(O[C@H]2CCOC2)c2cc(N3CCC4(CC3)CC(Cc3c(-c5ccccc5C(F)(F)F)noc3C3CC3)C4)ccc2n1` [Example 152], for which the EC50 came to 6 nM.
As to `O=C(O)c1cc(C(F)(F)F)c2cc(N3CCC4(CC3)CC(=Cc3c(-c5c(Cl)cncc5Cl)noc3C(F)(F)F)C4)ccc2n1` [Example 153], the EC50 stood at 26 nM.
Regarding `O=C(O)c1cc(CO)c2cc(N3CCC4(CC3)CC(Cc3c(-c5ccccc5C(F)(F)F)noc3C3CC3)C4)ccc2n1` [Example 154], the EC50 stood at 326 nM.
For `COCc1onc(-c2c(Cl)cncc2Cl)c1C=C1CC2(CCN(c3nc4c(F)cc(C(=O)O)cc4s3)CC2)C1` [Example 155] the value was 120 nM; for `O=C(O)c1ncc(N2CCC3(CC2)CC(Cc2c(-c4ccccc4C(F)(F)F)noc2C2CC2)C3)cc1C(F)(F)F` [Example 156], 1670 nM.
Under `O=C(O)c1ncc(N2CCC3(CC2)CC(=Cc2c(-c4ccccc4C(F)(F)F)noc2C2CC2)C3)cc1C(F)(F)F` [Example 157] stands 2470 nM; under `COCc1onc(-c2c(Cl)cncc2Cl)c1C=C1CC2(CCN(c3ccc4nc(C(=O)O)cc(C(F)(F)F)c4c3)CC2)C1` [Example 158], 33 nM.
Under `C=Cc1cncc(Cl)c1-c1noc(C2CC2)c1C=C1CC2(CCN(c3nc4c(F)cc(C(=O)O)cc4s3)CC2)C1` [Example 159] stands 350 nM; under `C=Cc1cncc(Cl)c1-c1noc(C2CC2)c1C=C1CC2(CCN(c3ccc4nc(C(=O)O)cc(C(F)(F)F)c4c3)CC2)C1` [Example 160], 37 nM.
For `COc1cc(C(=O)O)nc2ccc(N3CCC4(CC3)CC(=Cc3c(-c5c(Cl)cncc5Cl)noc3C(F)(F)F)C4)cc12` [Example 161], the EC50 came out at 27 nM.
Under `COCCOc1cc(C(=O)O)nc2ccc(N3CCC4(CC3)CC(=Cc3c(-c5c(Cl)cncc5Cl)noc3C(F)(F)F)C4)cc12` [Example 162] stands 37 nM.
Consider `O=C(O)c1cc(C(F)(F)F)cc(N2CCC3(CC2)CC(Cc2c(-c4ccccc4C(F)(F)F)noc2C2CC2)C3)n1` [Example 163], for which the EC50 is 1270 nM.
As for `O=C(O)c1cc(OC2CCC2)c2cc(N3CCC4(CC3)CC(=Cc3c(-c5c(Cl)cncc5Cl)noc3C(F)(F)F)C4)ccc2n1` [Example 164], the EC50 is 11 nM.
With `C=Cc1cncc(C=C)c1-c1noc(C2CC2)c1C=C1CC2(CCN(c3nc4c(F)cc(C(=O)O)cc4s3)CC2)C1` [Example 165], the EC50 amounted to 1700 nM.
For `CCc1cncc(Cl)c1-c1noc(C2CC2)c1C=C1CC2(CCN(c3ccc4nc(C(=O)O)cc(C(F)(F)F)c4c3)CC2)C1` [Example 166], the EC50 was found to be 30 nM.
For `O=C(O)c1cc(C(F)(F)F)c2cc(N3CCC4(CC3)CC(=Cc3c(-c5ccccc5C(F)(F)F)noc3C(F)(F)F)C4)ccc2n1` [Example 167] the value was 47 nM; for `COc1cc(C(=O)O)nc2ccc(N3CCC4(CC3)CC(=Cc3c(-c5ccccc5C(F)(F)F)noc3C(F)(F)F)C4)cc12` [Example 168], 23 nM; for `O=C(O)c1cc(F)c2nc(N3CCC4(CC3)CC(=Cc3c(-c5ccccc5C(F)(F)F)noc3C(F)(F)F)C4)sc2c1` [Example 169], 650 nM.
For the compound `N#Cc1cnc(N2CCC3(CC2)CC(Cc2c(-c4c(Cl)cccc4Cl)noc2C2CC2)C3)s1` [Example 170], the EC50 amounted to 1200 nM.
For `NC(=O)c1cc(OC2CCC2)c2cc(N3CCC4(CC3)CC(Cc3c(-c5ccccc5C(F)(F)F)noc3C3CC3)C4)ccc2n1` [Example 171], the EC50 amounted to 450 nM.
Regarding `CN(C)C(=O)c1cc(OC2CCC2)c2cc(N3CCC4(CC3)CC(Cc3c(-c5ccccc5C(F)(F)F)noc3C3CC3)C4)ccc2n1` [Example 172, 4-Cyclobutoxy-6-(2-((5-cyclopropyl-3-(2-(trifluoromethyl)phenyl)isoxazol-4-yl)methyl)-7-azaspiro[3.5]nonan-7-yl)-N,N-dimethylquinoline-2-carboxamide], the EC50 worked out at 69 nM.
For `O=C(NC1CC1)c1cc(OC2CCC2)c2cc(N3CCC4(CC3)CC(Cc3c(-c5ccccc5C(F)(F)F)noc3C3CC3)C4)ccc2n1` [Example 173] the value was 1370 nM; for `O=C(O)c1ccc(S(=O)(=O)N2CCC3(CC2)CC(Cc2c(-c4c(Cl)cccc4Cl)noc2C2CC2)C3)cc1` [Example 174], 540 nM; for `COc1cc([N+](=O)[O-])ccc1S(=O)(=O)N1CCC2(CC1)CC(Cc1c(-c3c(Cl)cccc3Cl)noc1C1CC1)C2` [Example 175], 1500 nM.
For `CC(=O)Nc1ncc(S(=O)(=O)N2CCC3(CC2)CC(Cc2c(-c4c(Cl)cccc4Cl)noc2C2CC2)C3)s1` [Example 176] the value was 840 nM; for `NC(=O)c1cc(C(F)(F)F)c2cc(N3CCC4(CC3)CC(Cc3c(-c5ccccc5C(F)(F)F)noc3C3CC3)C4)ccc2n1` [Example 177], 2240 nM.
In the case of `CN(C)C(=O)c1cc(C(F)(F)F)c2cc(N3CCC4(CC3)CC(Cc3c(-c5ccccc5C(F)(F)F)noc3C3CC3)C4)ccc2n1` [Example 178], the EC50 turned out to be 154 nM.
Take `CC(=O)N1CCc2cc(N3CCC4(CC3)CC(=Cc3c(-c5ccccc5OC(F)(F)F)noc3C3CC3)C4)ccc2C1` [Example 179, 1-(6-(2-((5-Cyclopropyl-3-(2-(trifluoromethoxy)phenyl)isoxazol-4-yl)methylene)-7-azaspiro[3.5]nonan-7-yl)-3,4-dihydroisoquinolin-2(1H)-yl)ethan-1-one]: the EC50 came out at 1600 nM.
Under `NC(=O)N1CCc2cc(N3CCC4(CC3)CC(=Cc3c(-c5ccccc5OC(F)(F)F)noc3C3CC3)C4)ccc2C1` [Example 180, 6-(2-((5-Cyclopropyl-3-(2-(trifluoromethoxy)phenyl)isoxazol-4-yl)methylene)-7-azaspiro[3.5]nonan-7-yl)-3,4-dihydroisoquinoline-2(1H)-carboxamide] stands 1400 nM.
As to `O=C(c1cc(OC2CCC2)c2cc(N3CCC4(CC3)CC(Cc3c(-c5ccccc5C(F)(F)F)noc3C3CC3)C4)ccc2n1)N1CCOCC1` [Example 181], the EC50 was found to be 44 nM.
